In PMC5823870 (Scientific Reports, 2018):

Legend:
[1] = biological target: Blh DUF442 domain (ST domain) (Xylella fastidiosa, UniProt Q9PFB0); settings: 12 mM potassium phosphate pH 7.4, 25 °C; 12 mM thiosulfate; cyanide as sulfur acceptor
O=S(O)(O)=S = assay: purified protein; settings: 12 mM potassium phosphate pH 7.4, 25 °C, cyanide 12 mM as sulfur acceptor (methods print potassium cyanate), thiosulfate 0 to 100 mM

Blh DUF442 domain (ST domain), sequence (Q9PFB0 1-141 limits assumed): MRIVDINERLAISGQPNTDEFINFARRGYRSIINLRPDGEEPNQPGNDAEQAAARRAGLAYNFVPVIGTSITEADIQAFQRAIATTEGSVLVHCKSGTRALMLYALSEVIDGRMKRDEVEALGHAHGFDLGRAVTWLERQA

| Molecule | rhodanese assay, iron-thiocyanate absorbance at 460 nm [1] | Km (O=S(O)(O)=S) [mM] |
| --- | --- | --- |
| O=S(=O)(O)S [thiosulfate] | catalyze the transfer of the sulfane sulfur of thiosulfate to cyanide | – |
| full-length Blh (Xylella fastidiosa 9a5c) | – | 6.2 |
